Test results: patent publication US20260193264A1, “BENZOYPARAZINE PYRAZINES AND THEIR USES” (FOGHORN THERAPEUTICS INC., priority 2022, published 2026)

Columns and labels:
[1] = molecular target: T1, HiBiT-BRM fusion protein in stable HeLa cell line (Homo sapiens, UniProt P51531); test: HiBiT-BRM cell-based degradation assay (Nano-Glo HiBiT Lytic Detection, 24 h); parameters: DC50: scale not given here; conditions: HeLa HiBiT-BRM cells; for DC50: read-out: BRM HiBit Degradation IC50; for BRM HiBit Degradation Maximum (%): top dose 30 μM
T1 construct: expressed in transfected cells
T1 sequence (P51531 whole entry, the tested form may be a part): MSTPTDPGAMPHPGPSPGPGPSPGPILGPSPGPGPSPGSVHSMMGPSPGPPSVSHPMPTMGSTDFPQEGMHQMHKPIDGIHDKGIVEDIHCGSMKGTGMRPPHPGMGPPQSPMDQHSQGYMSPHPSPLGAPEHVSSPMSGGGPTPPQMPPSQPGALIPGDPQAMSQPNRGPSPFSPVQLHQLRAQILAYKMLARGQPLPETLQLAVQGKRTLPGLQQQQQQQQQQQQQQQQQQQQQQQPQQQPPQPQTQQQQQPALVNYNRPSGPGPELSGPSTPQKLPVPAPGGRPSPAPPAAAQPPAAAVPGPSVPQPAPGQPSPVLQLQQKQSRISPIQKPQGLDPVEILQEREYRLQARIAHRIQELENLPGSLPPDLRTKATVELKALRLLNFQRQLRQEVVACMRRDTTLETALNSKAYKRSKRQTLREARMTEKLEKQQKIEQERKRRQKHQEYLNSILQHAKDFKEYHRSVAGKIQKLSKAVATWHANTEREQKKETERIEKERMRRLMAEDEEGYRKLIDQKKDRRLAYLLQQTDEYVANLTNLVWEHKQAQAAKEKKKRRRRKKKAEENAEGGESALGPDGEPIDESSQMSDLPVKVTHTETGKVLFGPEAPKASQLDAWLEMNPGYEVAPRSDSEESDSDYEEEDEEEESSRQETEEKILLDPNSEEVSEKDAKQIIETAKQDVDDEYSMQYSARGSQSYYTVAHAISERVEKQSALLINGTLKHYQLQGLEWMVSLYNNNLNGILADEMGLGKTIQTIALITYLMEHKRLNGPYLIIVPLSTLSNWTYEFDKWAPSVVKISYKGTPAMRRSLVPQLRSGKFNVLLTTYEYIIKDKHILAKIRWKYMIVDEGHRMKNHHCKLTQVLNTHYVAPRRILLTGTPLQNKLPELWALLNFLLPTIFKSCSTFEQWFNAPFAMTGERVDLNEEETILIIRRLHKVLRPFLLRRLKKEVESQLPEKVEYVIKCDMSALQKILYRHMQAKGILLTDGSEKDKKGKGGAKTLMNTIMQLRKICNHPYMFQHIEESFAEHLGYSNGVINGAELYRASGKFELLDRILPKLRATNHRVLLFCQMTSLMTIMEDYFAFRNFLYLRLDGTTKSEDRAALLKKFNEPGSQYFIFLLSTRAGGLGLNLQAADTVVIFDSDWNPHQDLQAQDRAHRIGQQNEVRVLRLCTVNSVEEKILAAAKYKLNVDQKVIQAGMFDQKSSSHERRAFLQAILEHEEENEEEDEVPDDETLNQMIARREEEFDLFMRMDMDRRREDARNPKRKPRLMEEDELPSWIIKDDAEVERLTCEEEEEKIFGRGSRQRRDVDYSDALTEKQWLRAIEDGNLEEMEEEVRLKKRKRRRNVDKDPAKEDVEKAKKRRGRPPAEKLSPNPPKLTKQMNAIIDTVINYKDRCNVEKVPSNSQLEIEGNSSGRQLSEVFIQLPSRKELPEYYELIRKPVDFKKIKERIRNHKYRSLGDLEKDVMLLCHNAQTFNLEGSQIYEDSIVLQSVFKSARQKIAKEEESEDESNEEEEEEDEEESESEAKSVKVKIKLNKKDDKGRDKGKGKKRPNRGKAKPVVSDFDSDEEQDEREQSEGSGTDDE
Summary of the method: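 HiBiT-tagged BRM levels in a stable HeLa line are measured after one day of compound treatment (up to 30 μM final, duplicate 10-point curves) by adding LgBiT lytic reagent and reading bioluminescence; values are expressed relative to vehicle and a 2 μM degrader control.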

[2] = molecular target: T2, HiBit-BRG1 fusion protein in stable HeLa cell line expressing HiBit-BRG1 and LgBit (Homo sapiens, UniProt P51532); test: HiBiT-BRG1 cell-based degradation assay (Nano-Glo HiBiT, 24 h); conditions: HeLa HiBit-BRG1/LgBit cells; for Dmax: top dose 30 μM, read-out: BRG1 HiBit Degradation Maximum (%); for DC50: read-out: BRMG1 HiBit Degradation IC50
T2 construct: expressed in transfected cells
T2 sequence (P51532 whole entry, the tested form may be a part): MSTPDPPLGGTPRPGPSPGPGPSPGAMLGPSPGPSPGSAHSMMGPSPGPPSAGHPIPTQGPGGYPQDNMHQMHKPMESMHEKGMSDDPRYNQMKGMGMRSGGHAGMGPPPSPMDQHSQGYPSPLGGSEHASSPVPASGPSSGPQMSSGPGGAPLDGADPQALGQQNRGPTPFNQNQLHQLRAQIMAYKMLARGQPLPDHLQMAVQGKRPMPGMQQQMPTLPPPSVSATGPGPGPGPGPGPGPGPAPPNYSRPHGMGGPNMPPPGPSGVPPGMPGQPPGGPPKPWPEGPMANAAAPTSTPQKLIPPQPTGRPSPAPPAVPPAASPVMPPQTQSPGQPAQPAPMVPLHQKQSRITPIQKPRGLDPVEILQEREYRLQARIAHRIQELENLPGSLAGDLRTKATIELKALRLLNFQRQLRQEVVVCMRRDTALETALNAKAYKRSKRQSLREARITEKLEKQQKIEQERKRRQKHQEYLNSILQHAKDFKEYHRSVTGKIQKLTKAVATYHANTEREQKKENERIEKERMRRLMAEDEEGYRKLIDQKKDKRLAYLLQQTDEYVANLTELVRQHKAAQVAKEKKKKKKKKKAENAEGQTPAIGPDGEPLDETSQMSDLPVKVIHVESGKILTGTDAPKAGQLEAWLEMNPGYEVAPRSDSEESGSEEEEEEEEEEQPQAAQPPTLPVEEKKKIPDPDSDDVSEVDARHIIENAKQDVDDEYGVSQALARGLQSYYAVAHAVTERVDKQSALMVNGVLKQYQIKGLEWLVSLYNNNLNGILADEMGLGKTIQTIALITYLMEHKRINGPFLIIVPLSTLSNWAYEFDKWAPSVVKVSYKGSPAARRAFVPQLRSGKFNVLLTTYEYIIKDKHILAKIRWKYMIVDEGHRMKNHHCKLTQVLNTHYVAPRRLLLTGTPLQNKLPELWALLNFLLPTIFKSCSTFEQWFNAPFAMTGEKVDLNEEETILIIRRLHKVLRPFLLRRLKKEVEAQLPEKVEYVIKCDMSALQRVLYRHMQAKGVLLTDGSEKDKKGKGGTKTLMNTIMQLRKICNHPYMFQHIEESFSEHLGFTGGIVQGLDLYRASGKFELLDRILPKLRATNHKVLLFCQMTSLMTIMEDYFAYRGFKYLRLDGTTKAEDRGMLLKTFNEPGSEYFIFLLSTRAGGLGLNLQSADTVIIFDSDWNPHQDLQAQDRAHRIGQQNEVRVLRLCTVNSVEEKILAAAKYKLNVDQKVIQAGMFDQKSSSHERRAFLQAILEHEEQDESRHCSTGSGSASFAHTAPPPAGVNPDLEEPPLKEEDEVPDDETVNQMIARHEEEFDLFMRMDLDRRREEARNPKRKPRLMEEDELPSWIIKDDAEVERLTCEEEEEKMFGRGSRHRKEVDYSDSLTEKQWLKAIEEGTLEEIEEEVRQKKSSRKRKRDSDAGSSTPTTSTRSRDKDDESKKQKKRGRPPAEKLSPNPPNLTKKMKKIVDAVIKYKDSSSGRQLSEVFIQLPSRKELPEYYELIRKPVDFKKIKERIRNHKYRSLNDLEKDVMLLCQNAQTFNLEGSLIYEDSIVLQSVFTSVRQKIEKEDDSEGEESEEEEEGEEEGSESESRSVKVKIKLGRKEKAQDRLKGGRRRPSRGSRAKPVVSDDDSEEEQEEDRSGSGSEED
Summary of the method: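 Degradation calculated from NanoBiT luminescence relative to DMSO-treated cells (high) and cells given 2 μM known BRM/BRG1 degrader (low). HeLa cells stably expressing HiBiT-BRG1 plus LgBiT were exposed to compound for 24 h before lytic HiBiT detection.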

SMILES	DC50 [1] [nM]	Dmax [2] [%]	DC50 [2] [nM]	BRM HiBit Degradation Maximum (%) [1]
Cc1ncsc1-c1ccc([C@H](C)NC(=O)[C@@H]2C[C@@H](O)CN2C(=O)[C@@H](c2cc(N3CCC4(CC[C@H](c5ccc6nnc(-c7ccccc7O)cc6c5)C4)CC3)no2)C(C)C)cc1 [Compound 75, (2S,4R)-4-hydroxy-1-((R)-2-(3-((S)-2-(3-(2-hydroxyphenyl)cinnolin-6-yl)-8-azaspiro[4.5]decan-8-yl)isoxazol-5-yl)-3-methylbutanoyl)-N-((S)-1-(4-(4-methylthiazol-5-yl)phenyl)ethyl)pyrrolidine-2-carboxamide]	< 10	> 75	> 10	A (“A” indicates maximum degradation ≥75%)
Cc1ncsc1-c1ccc([C@H](C)NC(=O)[C@@H]2C[C@@H](O)CN2C(=O)[C@@H](c2cc(-c3cnc(N4CC(c5cc(C6CC6)c6cc(-c7ccccc7O)nnc6c5)C4)nc3)no2)C(C)C)cc1 [Compound 77, (2S,4R)-1-((R)-2-(3-(2-(3-(5-cyclopropyl-3-(2-hydroxyphenyl)cinnolin-7-yl)azetidin-1-yl)pyrimidin-5-yl)isoxazol-5-yl)-3-methylbutanoyl)-4-hydroxy-N-((S)-1-(4-(4-methylthiazol-5-yl)phenyl)ethyl)pyrrolidine-2-carboxamide]	< 10	< 50		A (“A” indicates maximum degradation ≥75%)
Cc1ncsc1-c1ccc([C@H](C)NC(=O)[C@@H]2C[C@@H](O)CN2C(=O)[C@@H](c2cc(N3CCC4(CC3)CC(Oc3ccc5cc(-c6ccccc6O)nnc5c3)C4)no2)C(C)C)cc1 [Compound 78, (2S,4R)-4-hydroxy-1-((R)-2-(3-(2-((3-(2-hydroxyphenyl)cinnolin-7-yl)oxy)-7-azaspiro[3.5]nonan-7-yl)isoxazol-5-yl)-3-methylbutanoyl)-N-((S)-1-(4-(4-methylthiazol-5-yl)phenyl)ethyl)pyrrolidine-2-carboxamide]	> 10	< 50		A (“A” indicates maximum degradation ≥75%)
Cc1nc(N2CCC(c3ccc4cc(-c5ccccc5O)nnc4c3)CC2)ccc1-c1cc([C@H](C(=O)N2C[C@H](O)C[C@H]2C(=O)N[C@@H](C)c2ccc(-c3scnc3C)cc2)C(C)C)on1 [Compound 80, (2S,4R)-4-hydroxy-1-((R)-2-(3-(6-(4-(3-(2-hydroxyphenyl)cinnolin-7-yl)piperidin-1-yl)-2-methylpyridin-3-yl)isoxazol-5-yl)-3-methylbutanoyl)-N-((S)-1-(4-(4-methylthiazol-5-yl)phenyl)ethyl)pyrrolidine-2-carboxamide]	< 10	> 75	> 10	A (“A” indicates maximum degradation ≥75%)
Cc1ncsc1-c1ccc([C@H](C)NC(=O)[C@@H]2C[C@@H](O)CN2C(=O)[C@@H](c2cc(N3CCC4(CC3)CC(c3ccc5cc(-c6cc(F)cc(F)c6O)nnc5c3)C4)no2)C(C)C)cc1 [Compound 82, (2S,4R)-1-((R)-2-(3-(2-(3-(3,5-difluoro-2-hydroxyphenyl)cinnolin-7-yl)-7-azaspiro[3.5]nonan-7-yl)isoxazol-5-yl)-3-methylbutanoyl)-4-hydroxy-N-((S)-1-(4-(4-methylthiazol-5-yl)phenyl)ethyl)pyrrolidine-2-carboxamide]	< 10	< 50		A (“A” indicates maximum degradation ≥75%)
CC(C)[C@@H](C(=O)N1C[C@H](O)C[C@H]1C(=O)N[C@@H](C)c1ccccc1)c1cc(N2CC3(CN(c4ccc5cc(-c6ccccc6O)nnc5c4)C3)C2)no1 [Compound 85, (2S,4R)-4-hydroxy-1-((R)-2-(3-(6-(3-(2-hydroxyphenyl)cinnolin-7-yl)-2,6-diazaspiro[3.3]heptan-2-yl)isoxazol-5-yl)-3-methylbutanoyl)-N-((S)-1-phenylethyl)pyrrolidine-2-carboxamide]	< 10	< 50		A (“A” indicates maximum degradation ≥75%)
Cc1ncsc1-c1ccc([C@H](C)NC(=O)[C@@H]2C[C@@H](O)CN2C(=O)[C@@H](c2cc(N3C[C@@H]4[C@H](C3)[C@H]4c3ccc4nnc(-c5ccccc5O)cc4c3)no2)C(C)C)cc1 [Compound 86, (2S,4R)-4-hydroxy-1-((R)-2-(3-((1R,5S,6S)-6-(3-(2-hydroxyphenyl)cinnolin-6-yl)-3-azabicyclo[3.1.0]hexan-3-yl)isoxazol-5-yl)-3-methylbutanoyl)-N-((S)-1-(4-(4-methylthiazol-5-yl)phenyl)ethyl)pyrrolidine-2-carboxamide]	< 10	< 50		A (“A” indicates maximum degradation ≥75%)

Now from value to compound, other results behind:

DC50 [1] [nM]	Dmax [2] [%]	DC50 [2] [nM]	SMILES	BRM HiBit Degradation Maximum (%) [1]
< 10	< 50		Cc1ncsc1-c1ccc([C@H](C)NC(=O)[C@@H]2C[C@@H](O)CN2C(=O)[C@@H](c2cc(N3CC[C@@H](c4ccc5nnc(-c6ccccc6O)cc5c4)C3)no2)C(C)C)cc1 [Compound 73, (2S,4R)-4-hydroxy-1-((R)-2-(3-((S)-3-(3-(2-hydroxyphenyl)cinnolin-6-yl)pyrrolidin-1-yl)isoxazol-5-yl)-3-methylbutanoyl)-N-((S)-1-(4-(4-methylthiazol-5-yl)phenyl)ethyl)pyrrolidine-2-carboxamide]	A (“A” indicates maximum degradation ≥75%)
< 10	< 50		Cc1ncsc1-c1ccc([C@H](C)NC(=O)[C@@H]2C[C@@H](O)CN2C(=O)[C@@H](c2cc(N3CCC(c4ccc5cc(-c6ccccc6O)nnc5c4)CC3)no2)C(C)C)cc1 [Compound 74, (2S,4R)-4-hydroxy-1-((R)-2-(3-(4-(3-(2-hydroxyphenyl)cinnolin-7-yl)piperidin-1-yl)isoxazol-5-yl)-3-methylbutanoyl)-N-((S)-1-(4-(4-methylthiazol-5-yl)phenyl)ethyl)pyrrolidine-2-carboxamide]	A (“A” indicates maximum degradation ≥75%)
< 10	> 75	> 10	Cc1ncsc1-c1ccc([C@H](C)NC(=O)[C@@H]2C[C@@H](O)CN2C(=O)[C@@H](c2cc(N3CCC4(CC[C@@H](c5ccc6nnc(-c7ccccc7O)cc6c5)C4)CC3)no2)C(C)C)cc1 [Compound 76, (2S,4R)-4-hydroxy-1-((R)-2-(3-((R)-2-(3-(2-hydroxyphenyl)cinnolin-6-yl)-8-azaspiro[4.5]decan-8-yl)isoxazol-5-yl)-3-methylbutanoyl)-N-((S)-1-(4-(4-methylthiazol-5-yl)phenyl)ethyl)pyrrolidine-2-carboxamide]	A (“A” indicates maximum degradation ≥75%)
< 10	> 75	< 10	Cc1ncsc1-c1ccc([C@H](C)NC(=O)[C@@H]2C[C@@H](O)CN2C(=O)[C@@H](c2cc(-c3cnc(N4CC(c5cc6cc(-c7ccccc7O)nnc6cc5C5CC5)C4)nc3)no2)C(C)C)cc1 [Compound 79, (2S,4R)-1-((R)-2-(3-(2-(3-(7-cyclopropyl-3-(2-hydroxyphenyl)cinnolin-6-yl)azetidin-1-yl)pyrimidin-5-yl)isoxazol-5-yl)-3-methylbutanoyl)-4-hydroxy-N-((S)-1-(4-(4-methylthiazol-5-yl)phenyl)ethyl)pyrrolidine-2-carboxamide]	A (“A” indicates maximum degradation ≥75%)
< 10	< 50		Cc1cc(N2CCC(c3ccc4cc(-c5ccccc5O)nnc4c3)CC2)ncc1-c1cc([C@H](C(=O)N2C[C@H](O)C[C@H]2C(=O)N[C@@H](C)c2ccc(-c3scnc3C)cc2)C(C)C)on1 [Compound 81, (2S,4R)-4-hydroxy-1-((R)-2-(3-(6-(4-(3-(2-hydroxyphenyl)cinnolin-7-yl)piperidin-1-yl)-4-methylpyridin-3-yl)isoxazol-5-yl)-3-methylbutanoyl)-N-((S)-1-(4-(4-methylthiazol-5-yl)phenyl)ethyl)pyrrolidine-2-carboxamide]	A (“A” indicates maximum degradation ≥75%)
< 10	> 75	> 10	Cc1ncsc1-c1ccc([C@H](C)NC(=O)[C@@H]2C[C@@H](O)CN2C(=O)[C@@H](c2cc(N3CCC4(CCN(c5ccc6cc(-c7ccccc7O)nnc6c5)C4)CC3)no2)C(C)C)cc1 [Compound 83, (2S,4R)-4-hydroxy-1-((R)-2-(3-(2-(3-(2-hydroxyphenyl)cinnolin-7-yl)-2,8-diazaspiro [4.5]decan-8-yl)isoxazol-5-yl)-3-methylbutanoyl)-N-((S)-1-(4-(4-methylthiazol-5-yl)phenyl)ethyl)pyrrolidine-2-carboxamide]	A (“A” indicates maximum degradation ≥75%)
< 10	> 50	> 10	Cc1ncsc1-c1ccc([C@H](C)NC(=O)[C@@H]2C[C@@H](O)CN2C(=O)[C@@H](c2cc(N3CC4(CC(Oc5ccc6cc(-c7ccccc7O)nnc6c5)C4)C3)no2)C(C)C)cc1 [Compound 84, (2S,4R)-4-hydroxy-1-((R)-2-(3-(6-((3-(2-hydroxyphenyl)cinnolin-7-yl)oxy)-2-azaspiro[3.3]heptan-2-yl)isoxazol-5-yl)-3-methylbutanoyl)-N-((S)-1-(4-(4-methylthiazol-5-yl)phenyl)ethyl)pyrrolidine-2-carboxamide]	A (“A” indicates maximum degradation ≥75%)
